Source: US20130287807A1, “COMPOUNDS FOR TREATING SYMPTOMS ASSOCIATED WITH PARKINSON'S DISEASE” (priority 2008, published 2013)

B1: p4746 (peptide)
peptide: EELRHSVC
B2: p4384 (peptide)
peptide: TPFRHTC
B3: p4385 (peptide)
peptide: SQFRHYC
B4: p4391 (peptide)
peptide: QFKHDLC
B5: p4388 (peptide)
peptide: LPFRHGC
B6: p4382 (peptide)
peptide: TSFRHGC
B7: p4389 (peptide)
peptide: SHFRHGC
B8: p4393 (peptide)
peptide: EEFKYSC
B9: p4801 (peptide)
peptide: SEFKHC
B10: p4380 (peptide)
peptide: QDFRHYC
B11: p4741 (peptide)
peptide: DGLLFKHC
B12: p4387 (peptide)
peptide: SAFRHHC

Columns and labels:
[1] = system: Aβ/truncated/modified forms; experiment: In vivo characterisation of mimotopes: detection of Aβ/truncated/modified forms; design: species or system C57/B16 mice; key: +: All peptides listed in Table 4 mount specific immune reactions against full length and/or truncated and modified forms of Aβ or fragments thereof; conditions: Table 4, MV-001 derived mimotopes
Experimental: Inhibiting as well as non-inhibiting peptides were coupled to KLH and injected into mice (wildtype C57/B16 mice; subcutaneous injection into the flank) together with an appropriate adjuvant (aluminium hydroxide). Animals were vaccinated 3-6 times in biweekly intervals and sera were taken biweekly as well. Titers to injected peptides, as well as to an irrelevant peptide were determined with every serum. Furthermore, titers against the recombinant human Aβ protein, and against original peptides were determined respectively. In general sera were analysed by reaction against peptides coupled to Bovine Serum Albumin (BSA) and recombinant full length proteins which were immobilised on ELISA plates. Titers were determined using anti mouse IgG specific antibodies. For detailed results see FIGS. 15, 16 and 17 respectively and FIGS. 23, 24 and 25 respectively.
(§1) Female C57/b16 mice, 5-6 mice per group, were subcutaneously immunized with 30 μg peptide coupled to KLH. Control groups were administered original epitope-KLH conjugates respectively. As adjuvant alum was used (always 1 mg per mouse). […] The in vitro ELISA assay to determine the antibody titer was performed with sera of single mice after each vaccination in a two week interval (see FIGS. 15 and 16 respectively). The wells of the ELISA plate were coated with mimotope-BSA conjugate and an irrelevant peptide-BSA conjugate (negative control). The positive control was performed by reaction of the parental antibody with the respective mimotope-BSA conjugate. The detection was performed with anti-mouse IgG. Additionally, recombinant proteins were immobilised on ELISA plates and sera reacted accordingly. FIGS. 15 to 17 show representative examples for assays used to characterise mimotopes in vivo.
as §1, with “FIGS. 25” for “FIGS. 15”, “and 26” for “and 16”, “respectively). Titers were calculated as OD max/2 in all figures shown.” for “respectively).”, “FIGS. 23, 24 and 25” for “FIGS. 15 to 17”

[2] = system: monoclonal antibody MV-001; experiment: In vitro binding assay (ELISA), BSA-coupled peptides, parental antibody MV-001; design: species or system C57/B16 mice; conditions: Table 1C; peptide-BSA on plate, compared to original epitope
Experimental: (§2) Peptides derived from Phage Display as well as variants thereof were coupled to BSA and bound to ELISA plates (1 μM; as indicated in the respective figures) and subsequently incubated with the monoclonal antibody that was used for the screening procedure to analyse binding capacity of identified peptides.
Legend to Table 1C: the binding capacity is coded by the following binding code: 1:X describes the dilution factor of the parental AB

[3] = system: monoclonal antibody MV-001; experiment: In vitro inhibition assay (ELISA), MV-001 binding to original epitope; design: species or system C57/B16 mice; conditions: Table 2C; OD at 10 ug peptide compared to original peptide
Experimental: (§3) Different amounts of peptides (concentrations ranging from 10 μg to 0.08 μg; serial dilutions; for MV-002: concentrations ranging from 5 μg to 0.03 μg; serial dilutions), derived from Phage Display were incubated with the monoclonal antibody that was used for the screening procedure. Peptides diminishing subsequent binding of the antibody to the original epitope coated on ELISA plates were considered as inhibiting in this assay.
(§4) Legend to Table 2C: the inhibition capacity is coded by the following code: Weak inhibition means more peptide is required to lower AB binding than with the original epitope; strong inhibition means similar peptide amounts are required for mimotope and original epitope for lowering AB binding. Mimotopes are compared to the original peptide as standard. OD at 10 ug peptide used in the assay is used to calculate the competition capacity compared to original peptide.

[4] = system: monoclonal antibody MV-002; experiment: In vitro inhibition assay (ELISA), MV-002 binding to original epitope; design: species or system C57/B16 mice; conditions: Table 2 (MV-002); OD at 5 ug peptide compared to original peptide
Experimental: as §3
as §4, with “2:” for “2C:”, “5” for “10”

[5] = system: monoclonal antibody MV-002; experiment: In vitro binding assay (ELISA), BSA-coupled peptides, parental antibody MV-002; design: species or system C57/B16 mice; conditions: Table 1 (MV-002); peptide-BSA on plate, compared to original epitope
Experimental: as §2
Legend to Table 1: the binding capacity is coded by the following binding code: 1:X describes the dilution factor of the parental AB. Ac- . . . indicates acetylated AA.

[6] = biological target: monoclonal antibody MV-001; experiment: inhibition ELISA, competitor coated original epitope p4371; code 1 = weaker than original epitope
[7] = biological target: monoclonal antibody MV-001; experiment: ELISA on peptide-BSA; code 3 = strong binding, OD halfmax 1:>20000
[8] = biological target: monoclonal antibody MV-001; experiment: ELISA on peptide-BSA; code 2 = medium binding, OD halfmax 1:4000-20000

| Molecule | Detection of Aβ/truncated/modified forms [1] | Binding Capacity [2] | Inhibition Capacity [3] | OD at 10 ug peptide relative to OD of original peptide (inhibition ELISA) [6] | OD halfmax 1:X (dilution factor of the parental antibody at half-maximal OD) (dilutionfactor(1:x)) [8] | also measured |
| --- | --- | --- | --- | --- | --- | --- |
| ADHDFRHC [p4740] | + | 3 (strong binding :>20000) | 1 (Weaker than original epitope (OD of 10 ug peptide below 3 times of original peptide)) | – | – | – |
| DEHPFRHC [p4730] | + | 3 (strong binding :>20000) | 1 (Weaker than original epitope (OD of 10 ug peptide below 3 times of original peptide)) | – | – | – |
| ELFKHHLC [p4714] | + | 3 (strong binding :>20000) | – | – | – | – |
| GEILFGMC [p4689] | – | – | – | – | – | Inhibition Capacity [4]: 1 (Weaker than original epitope (OD of peptide below 4, 6 times of original peptide)); Binding Capacity [5]: 3 (strong binding :>320000) |
| HQKMIFC [p4794] | – | – | – | – | – | Inhibition Capacity [4]: 1 (Weaker than original epitope (OD of peptide below 4, 6 times of original peptide)); Binding Capacity [5]: 2 (medium binding :40000-320000) |
| ILFRHGC [p4390] | + | 3 (strong binding :>20000) | 1 (Weaker than original epitope (OD of 10 ug peptide below 3 times of original peptide)) | – | – | – |
| LMFRHNC [p4386] | + | 3 (strong binding :>20000) | 1 (Weaker than original epitope (OD of 10 ug peptide below 3 times of original peptide)) | – | – | – |
| NDAKIVFC [p4667] | – | – | – | – | – | Inhibition Capacity [4]: 1 (Weaker than original epitope (OD of peptide below 4, 6 times of original peptide)); Binding Capacity [5]: 3 (strong binding :>320000) |
| QSEFKHWC [p4738] | + | 3 (strong binding :>20000) | 1 (Weaker than original epitope (OD of 10 ug peptide below 3 times of original peptide)) | – | – | – |
| SEFKHGC [p4381] | + | 3 (strong binding :>20000) | 1 (Weaker than original epitope (OD of 10 ug peptide below 3 times of original peptide)) | – | – | – |
| SHQRLWFC [p4674] | – | – | – | – | – | Inhibition Capacity [4]: 1 (Weaker than original epitope (OD of peptide below 4, 6 times of original peptide)); Binding Capacity [5]: 3 (strong binding :>320000) |
| SPNQFRHC [p4707] | + | 3 (strong binding :>20000) | 1 (Weaker than original epitope (OD of 10 ug peptide below 3 times of original peptide)) | – | – | – |
| SQFRHYC [p4385] | + | 2 (medium binding :4000-20000) | 1 (Weaker than original epitope (OD of 10 ug peptide below 3 times of original peptide)) | – | – | – |
| TEFRHKAC [p4753] | + | 3 (strong binding :>20000) | 2 (strong inhibition (as original epitope; OD of 10 ug peptide below 2 times of original peptide)) | – | – | – |
| THTDFRHC [p4725] | + | 3 (strong binding :>20000) | 1 (Weaker than original epitope (OD of 10 ug peptide below 3 times of original peptide)) | – | – | – |
| TLHEFRHC [p4715] | + | 3 (strong binding :>20000) | 2 (strong inhibition (as original epitope; OD of 10 ug peptide below 2 times of original peptide)) | – | – | – |
| TSVFRHC [p4383] | + | 3 (strong binding :>20000) | 1 (Weaker than original epitope (OD of 10 ug peptide below 3 times of original peptide)) | – | – | – |
| YEFRHAQC [p4748] | + | 3 (strong binding :>20000) | – | – | – | – |
| B1 | – | – | – | 2 to 3 fold | – | OD halfmax 1:X (dilution factor of the parental antibody at half-maximal OD) (dilutionfactor(1:x)) [7]: > 20000 |
| B2 | – | – | – | 2 to 3 fold | 4000 to 20000 | – |
| B3 | – | – | – | 2 to 3 fold | 4000 to 20000 | – |
| B4 | – | – | – | 2 to 3 fold | 4000 to 20000 | – |
| B5 | – | – | – | 2 to 3 fold | 4000 to 20000 | – |
| B6 | – | – | – | 2 to 3 fold | 4000 to 20000 | – |
| B7 | – | – | – | 2 to 3 fold | 4000 to 20000 | – |
| B8 | – | – | – | 2 to 3 fold | 4000 to 20000 | – |
| B9 | – | – | – | 2 to 3 fold | – | OD halfmax 1:X (dilution factor of the parental antibody at half-maximal OD) (dilutionfactor(1:x)) [7]: > 20000 |
| B10 | – | – | – | 2 to 3 fold | 4000 to 20000 | – |
| B11 | – | – | – | 2 to 3 fold | – | OD halfmax 1:X (dilution factor of the parental antibody at half-maximal OD) (dilutionfactor(1:x)) [7]: > 20000 |
| B12 | – | – | – | 2 to 3 fold | 4000 to 20000 | – |
